Where a name gives a salt, the structure may show the parent alone.

One experiment addresses T1, Serotonin reuptake (Rattus norvegicus, UniProt P31652).
T1 construct: synaptosomes are freshly isolated from areas of the rat brain; from tissue
Nature of the experiment: Inhibition of serotonin (5HT) reuptake in rat brain synaptosomes. It counts as biochemical. How it is done: In order to be able to carry out these in vitro studies, synaptosomes are freshly isolated from areas of the rat brain. In each case a so-called “P2” fraction prepared in accordance with the instruction of Gray and Whittaker (E. G. Gray and V. P. Whittaker (1962) J. Anat. 76, 79-88) is prepared. For the NA uptake, these vesicular particles are isolated from the hypothalamus of male rat brains.
A detailed description of the method can be found in the literature (M. Ch. Frink, H.-H. Hennies, W. Englberger, M. Haurand and B. Wilffert (1996) Arzneim.-Forsch./Drug Res. 46 (III), 11, 1029-1036).

A further experiment concerns the target T2, human μ opiate receptor (Homo sapiens, UniProt P35372).
T2 construct: purchased PerkinElmer Life Sciences, Zaventem, Belgium RB-HOM; host or cells: CHO-K1 cells (recombinant expression)
Kind of experiment: Affinity for the human μ opiate receptor ([3H]-naloxone displacement, CHO-K1 membrane preparation, SPA). The settings on record: for μ opioid receptor [1 μM], % inhibition / inhibition at 1 µM: 1 μM test substance, displacement of [3H]-naloxone; for inhibition at 1 µM: read-out: μ opioid receptor [1 μM], % inhibition; for Ki: Cheng-Prusoff conversion from IC50, read-out: μ opioid receptor, Ki; for μ opioid receptor [1 μmol], % inhibition: compounds prepared via automated synthesis, single measurements at a test concentration of 1 μM. Type of experiment: binding. The method in brief: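 CHO-K1 membranes expressing human μ receptor (15-40 μg protein/250 μl) were incubated 90 min at room temperature with 1 nmol/l [³H]-naloxone and WGA-SPA beads in 50 mmol/l Tris-HCl with 0.06% BSA; 100 μmol/l naloxone defined nonspecific binding. Percent displacement measured at 1 μmol/l; IC50 converted to Ki via Cheng-Prusoff.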

T2 sequence (P35372 whole entry): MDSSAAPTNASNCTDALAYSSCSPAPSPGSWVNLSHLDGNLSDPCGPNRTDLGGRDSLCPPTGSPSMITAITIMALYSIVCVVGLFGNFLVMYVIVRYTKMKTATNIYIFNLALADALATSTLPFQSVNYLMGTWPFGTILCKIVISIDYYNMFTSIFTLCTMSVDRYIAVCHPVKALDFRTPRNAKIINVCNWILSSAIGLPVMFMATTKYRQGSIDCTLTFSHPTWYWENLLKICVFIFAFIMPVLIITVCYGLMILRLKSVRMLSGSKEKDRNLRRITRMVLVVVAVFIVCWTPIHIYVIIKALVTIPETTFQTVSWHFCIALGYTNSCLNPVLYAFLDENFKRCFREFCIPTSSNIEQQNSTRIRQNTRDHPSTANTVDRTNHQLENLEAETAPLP
T1 sequence (P31652 whole entry): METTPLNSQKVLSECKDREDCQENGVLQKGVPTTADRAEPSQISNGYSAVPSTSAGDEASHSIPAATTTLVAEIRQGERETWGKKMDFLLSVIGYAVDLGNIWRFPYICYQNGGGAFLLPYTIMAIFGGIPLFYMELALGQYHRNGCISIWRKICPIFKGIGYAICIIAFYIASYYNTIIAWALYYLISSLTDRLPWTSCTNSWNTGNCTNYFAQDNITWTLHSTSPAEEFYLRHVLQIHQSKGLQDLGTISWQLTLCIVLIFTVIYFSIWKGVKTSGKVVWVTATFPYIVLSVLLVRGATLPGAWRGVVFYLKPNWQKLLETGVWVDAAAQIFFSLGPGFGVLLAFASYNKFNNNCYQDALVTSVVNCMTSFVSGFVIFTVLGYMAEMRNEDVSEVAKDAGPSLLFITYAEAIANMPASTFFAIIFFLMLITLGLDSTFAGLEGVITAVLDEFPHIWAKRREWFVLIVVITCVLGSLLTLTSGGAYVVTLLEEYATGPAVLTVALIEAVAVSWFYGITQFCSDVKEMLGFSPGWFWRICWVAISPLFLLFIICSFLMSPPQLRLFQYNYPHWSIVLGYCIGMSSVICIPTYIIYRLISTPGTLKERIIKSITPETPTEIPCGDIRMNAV

Regarding `CC1Cc2c([nH]c3ccc(F)cc23)C2(CCC(C(CCc3ccccc3)N(C)C)CC2)O1` (stereo not shown) [Compound 54, 6-Fluoro-3-methyl-1,1-[3-(dimethylamino-(phenylethyl)-methyl) -pentamethylene]-1,3,4,9-tetrahydropyrano[3,4-b]indole], at Serotonin reuptake, the “Serotonin reuptake, % inhibition [10 μM]” value was 55%. The “μ opioid receptor [1 μM], % inhibition” value at human μ opiate receptor came out at 21%.

As for `Cc1ccc2[nH]c3c(c2c1)CC(C)OC31CCC(C(c2ccccc2)N(C)C)CC1` (stereo not shown) [Compound 42, 3,6-Dimethyl-1,1-[3-(dimethylamino-(phenyl)-methyl)-pentamethylene]-1,3,4,9-tetrahydropyrano[3,4-b]indole Citrate], the inhibition at 10 µM against Serotonin reuptake amounted to 64%. Besides, on human μ opiate receptor, the inhibition at 1 µM turned out to be 101% and the Ki is 0.029 µM.

With `CC1Cc2c([nH]c3ccc(F)cc23)C2(CCC(C(c3cccc(F)c3)N(C)C)CC2)O1` (stereo not shown) [Compound 52, 6-Fluoro-3-methyl-1,1-[3-(dimethylamino-(3-fluorophenyl) -methyl)-pentamethylene]-1,3,4,9-tetrahydropyrano[3,4-b]indole], the “Serotonin reuptake, % inhibition [10 μM]” value on Serotonin reuptake amounted to 68%. On human μ opiate receptor, the “μ opioid receptor [1 μM], % inhibition” value came out at 53%.

With `Cc1ccc2[nH]c3c(c2c1)CC(C)OC31CCC(C(c2ccc(F)cc2)N(C)C)CC1` (stereo not shown) [Compound 40, 3,6-Dimethyl-1,1-[3-(dimethylamino-(4-fluorophenyl)-methyl) -pentamethylene]-1,3,4,9-tetrahydropyrano[3,4-b]indole], the “Serotonin reuptake, % inhibition [10 μM]” value at Serotonin reuptake came out at 47%. Further, the “μ opioid receptor [1 μM], % inhibition” value on human μ opiate receptor was found to be 68%.

In the case of `CN(C)C(c1ccc(Cl)cc1)C1CCC2(CC1)c1[nH]c3ccccc3c1CCN2C(=O)Cc1ccc(F)cc1` (stereo not shown) [Compound 123, 2-[(4-fluorophenyl)acetyl]-{1,1-[3-(dimethylamino-(4-chlorophenyl)-methyl)-pentamethylene]-3,4-dihydro-1H-2,9-diazafluorene}], the “μ opioid receptor [1 μmol], % inhibition” value at human μ opiate receptor worked out at 20%.

Consider `CN(C)C(c1ccccc1)C1CCC2(CC1)OCCc1c2[nH]c2ccc(F)cc12` (stereo not shown) [Compound 37, 6-Fluoro-1,1-[3-(dimethylamino-(phenyl)-methyl)-pentamethylene]-1,3,4,9-tetrahydro-pyrano[3,4-b]indole], for which the inhibition at 10 µM on Serotonin reuptake was 68%. At human μ opiate receptor, the inhibition at 1 µM was found to be 74% and the Ki was determined as 0.037 µM.

For the compound `COc1cccc(CC(=O)N2CCc3c([nH]c4ccccc34)C23CCC(C(c2ccccc2)N(C)C)CC3)c1` (stereo not shown) [Compound 136, 2-[(3-methoxyphenyl)acetyl]-{1,1-[3-(dimethylamino-phenylmethyl)-pentamethylene]-3,4-dihydro-1H-2,9-diazafluorene}], the “μ opioid receptor [1 μmol], % inhibition” value on human μ opiate receptor came to 75%.

As to `COCC(=O)N1CCc2c([nH]c3ccccc23)C12CCC(C(c1ccc(Cl)cc1)N(C)C)CC2` (stereo not shown) [Compound 97, 2-(methoxyacetyl)-{1,1-[3-(dimethylamino-(4-chlorophenyl)methyl)-pentamethylene]-3,4-dihydro-1H-2,9-diazafluorene}], on human μ opiate receptor, the “μ opioid receptor [1 μmol], % inhibition” value is recorded as 20%.

As for `CN(C)C(c1cccc(F)c1)C1CCC2(CC1)OCCc1c2[nH]c2ccc(F)cc12` (stereo not shown) [Compound 36, 6-Fluoro-1,1-[3-(dimethylamino-(3-fluorophenyl)-methyl)-pentamethylene]-1,3,4,9-tetrahydropyrano[3,4-b]indole], on human μ opiate receptor, the inhibition at 1 µM was determined as 102% and the Ki came out at 0.046 µM.

Regarding `CC(=O)N1CCc2c([nH]c3ccccc23)C12CCC(C(c1ccccc1)N(C)C)CC2` (stereo not shown) [Compound 79, 2-acetyl-{1,1-[3-(dimethylamino-phenylmethyl) -pentamethylene]-3,4-dihydro-1H-2,9-diazafluorene}], at human μ opiate receptor, the “μ opioid receptor [1 μmol], % inhibition” value was found to be 4%.

Turning to `CC(=Cc1ccccc1)C(=O)N1CCc2c([nH]c3ccccc23)C12CCC(C(c1cccc(F)c1)N(C)C)CC2` (stereo not shown) [Compound 68, 1-{1,1-[3-(dimethylamino-(3-fluorophenyl)methyl) -pentamethylene]-3,4-dihydro-1H-2,9-diazafluoren-2-yl}-2-methyl-3-phenylprop-2-en-1-one], on human μ opiate receptor, the “μ opioid receptor [1 μmol], % inhibition” value came to 19%.

On to `CN(C)C(c1ccc(Cl)cc1)C1CCC2(CC1)c1[nH]c3ccccc3c1CCN2C(=O)c1cc2ccccc2s1` (stereo not shown) [Compound 78, 2-(1-benzothien-2-ylcarbonyl)-{1,1-[3-(dimethylamino-(4-chlorophenyl)-methyl)-pentamethylene]-3,4-dihydro-1H-2,9-diazafluorene}], for which, at human μ opiate receptor, the “μ opioid receptor [1 μmol], % inhibition” value amounted to 11%.

For the compound `CC1Cc2c([nH]c3ccc(F)cc23)C2(CCC(C(c3ccc(F)cc3)N(C)C)CC2)O1` (stereo not shown) [Compound 51, 6-Fluoro-3-methyl-1,1-[3-(dimethylamino-(4-fluorophenyl) -methyl)-pentamethylene]-1,3,4,9-tetrahydropyrano[3,4-b]indole], the “Serotonin reuptake, % inhibition [10 μM]” value at Serotonin reuptake was determined as 39%. Further, the “μ opioid receptor [1 μM], % inhibition” value on human μ opiate receptor was found to be 46%.

Consider `COc1ccc(CC(=O)N2CCc3c([nH]c4ccccc34)C23CCC(C(c2ccc(F)cc2)N(C)C)CC3)cc1OC` (stereo not shown) [Compound 63, 2-[(3,4-dimethoxyphenyl)acetyl]-{1,1-[3-(dimethylamino-(4-fluorophenyl)methyl)-pentamethylene]-3,4-dihydro-1H-2,9-diazafluorene}], for which the “μ opioid receptor [1 μmol], % inhibition” value at human μ opiate receptor is 29%.

Take `CN(C)C(c1ccc(Cl)cc1)C1CCC2(CC1)c1[nH]c3ccccc3c1CCN2C(=O)CC(C)(C)C` (stereo not shown) [Compound 73, 1-{1,1-[3-(dimethylamino-(4-chlorophenyl)methyl) -pentamethylene]-3,4-dihydro-1H-2,9-diazafluoren-2-yl}-3,3-dimethylbutan-1-one]: at human μ opiate receptor, the “μ opioid receptor [1 μmol], % inhibition” value is recorded as 24%.

As for `CN(C)C(c1cccc(F)c1)C1CCC2(CC1)c1[nH]c3ccccc3c1CCN2C(=O)C1CCCCC1` (stereo not shown) [Compound 69, 2-(cyclohexylcarbonyl)-{1,1-[3-(dimethylamino-(3-fluorophenyl)methyl)-pentamethylene]-3,4-dihydro-1H-2,9-diazafluorene}], the “μ opioid receptor [1 μmol], % inhibition” value at human μ opiate receptor turned out to be 26%.

`COc1cccc(CC(=O)N2CCc3c([nH]c4ccccc34)C23CCC(C(c2ccc(F)cc2)N(C)C)CC3)c1` (stereo not shown) [Compound 140, 2-[(3-methoxyphenyl)acetyl]-{1,1-[3-(dimethylamino-(4-fluorophenyl)methyl)-pentamethylene]-3,4-dihydro-1H-2,9-diazafluorene}]: at human μ opiate receptor, the “μ opioid receptor [1 μmol], % inhibition” value turned out to be 47%.

As to `COc1cccc(CC(=O)N2CCc3c([nH]c4ccccc34)C23CCC(C(c2cccc(F)c2)N(C)C)CC3)c1` (stereo not shown) [Compound 126, 2-[(3-methoxyphenyl)acetyl]-{1,1-[3-(dimethylamino-(3-fluorophenyl)methyl)-pentamethylene]-3,4-dihydro-1H-2,9-diazafluorene}], the “μ opioid receptor [1 μmol], % inhibition” value on human μ opiate receptor was 50%.

As for `CN(C)C(c1cccc(F)c1)C1CCC2(CC1)c1[nH]c3ccccc3c1CCN2C(=O)Cc1ccc(F)cc1` (stereo not shown) [Compound 116, 2-[(4-fluorophenyl)acetyl]-{1,1-[3-(dimethylamino-(3-fluorophenyl)methyl)-pentamethylene]-3,4-dihydro-1H-2,9-diazafluorene}], the “μ opioid receptor [1 μmol], % inhibition” value at human μ opiate receptor came out at 20%.

`CN(C)C(c1ccccc1)C1CCC2(CC1)c1[nH]c3ccccc3c1CCN2C(=O)Cc1cccs1` (stereo not shown) [Compound 82, 2-(2-thienylacetyl)-{1,1-[3-(dimethylamino-phenylmethyl)-pentamethylene]-3,4-dihydro-1H-2,9-diazafluorene}]: the “μ opioid receptor [1 μmol], % inhibition” value on human μ opiate receptor came out at 31%.

For the compound `CN(C)C(c1ccc(F)cc1)C1CCC2(CC1)c1[nH]c3ccccc3c1CCN2C(=O)Cc1ccc(F)cc1` (stereo not shown) [Compound 110, 2-[(4-fluorophenyl)acetyl]-{1,1-[3-(dimethylamino-(4-fluorophenyl)methyl)-pentamethylene]-3,4-dihydro-1H-2,9-diazafluorene}], the “μ opioid receptor [1 μmol], % inhibition” value on human μ opiate receptor came out at 14%.

As for `CN(C)C(c1ccccc1)C1CCC2(CC1)c1[nH]c3ccccc3c1CCN2C(=O)C=Cc1ccccc1Cl` (stereo not shown) [Compound 61, 1-{1,1-[3-(dimethylamino-phenylmethyl)-pentamethylene]-3,4-dihydro-1H-2,9-diazafluoren-2-yl}-3-(2-chlorophenyl)prop-2-en-1-one], the “μ opioid receptor [1 μmol], % inhibition” value at human μ opiate receptor was found to be 6%.

As to `CC(=O)N1CCc2c([nH]c3ccccc23)C12CCC(C(c1ccc(F)cc1)N(C)C)CC2` (stereo not shown) [Compound 84, acetyl-{1,1-[3-(dimethylamino-(4-fluorophenyl)methyl) -pentamethylene]-3,4-dihydro-1H-2,9-diazafluorene}], the “μ opioid receptor [1 μmol], % inhibition” value on human μ opiate receptor turned out to be 41%.

Regarding `CCC(=O)N1CCc2c([nH]c3ccccc23)C12CCC(C(c1ccc(Cl)cc1)N(C)C)CC2` (stereo not shown) [Compound 120, 2-propionyl-{1,1-[3-(dimethylamino-(4-chlorophenyl)methyl)-pentamethylene]-3,4-dihydro-1H-2,9-diazafluorene}], the “μ opioid receptor [1 μmol], % inhibition” value at human μ opiate receptor is given as 29%.

Regarding `CC(C)CC(=O)N1CCc2c([nH]c3ccccc23)C12CCC(C(c1ccc(Cl)cc1)N(C)C)CC2` (stereo not shown) [Compound 134, 1-{1,1-[3-(dimethylamino-(4-chlorophenyl)methyl) -pentamethylene]-3,4-dihydro-1H-2,9-diazafluoren-2-yl}-3-methylbutan-1-one], the “μ opioid receptor [1 μmol], % inhibition” value at human μ opiate receptor is 47%.

Values taken from patent publication US8124788B2, “Spirocyclic cyclohexane compounds with analgesic activity” (Gruenenthal GmbH, priority 2006, dated 2012).
